Source: EP0105692B1, “6-H-dibenz(b,e)(1,4)oxathiepin derivatives and their preparation” (MERCK FROSST CANADA INC., priority 1982, dated 1984)

How the values were obtained:
[1] = test system: PGEA-induced bronchoconstriction (R2); test: Inhibition of PGEA-induced bronchoconstriction in the guinea pig in vivo; conditions: Cavia porcellus, IV injection
[2] = test system: arachidonic acid induced bronchoconstriction; test: Arachidonic acid induced bronchoconstriction and hypotension in the anaesthetized dog; type: in vivo; conditions: intraduodenal administration

## O=S1(=O)c2ccccc2COc2ccc(CO)cc21 [Example 13, 2-Hydroxymethy!-6H-dibenz[b,e][1,4]oxathiepin-11,11-dioxide]
[1]
  ED50: 10.5 mg/kg
[2]
  inhibition of arachidonic acid induced bronchoconstriction: inhibited
  inhibition of arachidonic acid induced hypotension: not
